Common to all, as to test: biochemical
What all share (set-up): Eurofins KinaseProfiler full panel at Km ATP, residual kinase activity (%) relative to DMSO

One experiment deals with T1, Fms(h) (Homo sapiens, UniProt P07333).
T1 construct: gene CSF1R
In short, it runs like this:
(§1)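 Radiometric kinase activity assays were run with ATP at Km and compounds at 10 µM, and remaining activity (%) was reported. A separate competitive binding screen measured DNA-tagged kinase displaced from immobilized active-site ligands by qPCR, giving percent kinase still bound at 10 µM compound in DMSO.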

Another experiment deals with T2, GSK3α(h) (Homo sapiens, UniProt P49840).
T2 construct: gene GSK3A
An outline of the steps:
as §1

The target of the next experiment is LIMK2(h) (Homo sapiens, UniProt P53671). An outline of the steps: as §1
For another experiment, the target named is Met(h) (Homo sapiens, UniProt P08581). In short, it runs like this: as §1
Experiment [1] concerns the target T3, PI3 Kinase (p110d/p85a)(m) (Mus musculus, UniProt O35904).
T3 construct: gene Pik3cd
An outline of the steps:
as §1

The next experiment has as its target T4, PKCι(h) (Homo sapiens, UniProt P41743).
T4 construct: gene PRKCI
T4 sequence (P41743 1-596): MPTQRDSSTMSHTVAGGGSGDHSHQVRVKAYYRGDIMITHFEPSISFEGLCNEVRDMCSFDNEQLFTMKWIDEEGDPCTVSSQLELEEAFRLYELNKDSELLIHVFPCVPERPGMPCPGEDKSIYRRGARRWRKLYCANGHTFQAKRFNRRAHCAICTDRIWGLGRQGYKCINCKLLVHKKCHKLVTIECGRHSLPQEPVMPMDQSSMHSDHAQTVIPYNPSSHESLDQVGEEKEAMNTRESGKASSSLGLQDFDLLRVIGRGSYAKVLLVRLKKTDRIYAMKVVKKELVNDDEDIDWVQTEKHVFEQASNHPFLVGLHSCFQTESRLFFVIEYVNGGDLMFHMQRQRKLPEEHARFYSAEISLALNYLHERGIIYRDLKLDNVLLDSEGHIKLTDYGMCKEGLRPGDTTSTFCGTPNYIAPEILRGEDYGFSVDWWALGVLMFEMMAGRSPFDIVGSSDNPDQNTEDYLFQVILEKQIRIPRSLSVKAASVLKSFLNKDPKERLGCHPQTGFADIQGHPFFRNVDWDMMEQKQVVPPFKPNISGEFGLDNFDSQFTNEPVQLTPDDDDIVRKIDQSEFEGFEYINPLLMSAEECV
An outline of the steps: as §1

The mark [2] stands for this setting: read-out: Residual activity (%) Spautin-1 5aa.
[3] abbreviates: read-out: Residual activity (%) 5as.
The mark [4] stands for this setting: read-out: Residual activity (%) 5at.
Setting [5] is: read-out: Residual activity (%) 5ay.

The source of these data is PMC7827406, “Structure–Activity Relationship (SAR) Study of Spautin-1 to Entail the Discovery of Novel NEK4 Inhibitors” (International Journal of Molecular Sciences, 2021).

Like-named read-outs stand apart in the source and are kept apart here.

T2 sequence (P49840 whole entry): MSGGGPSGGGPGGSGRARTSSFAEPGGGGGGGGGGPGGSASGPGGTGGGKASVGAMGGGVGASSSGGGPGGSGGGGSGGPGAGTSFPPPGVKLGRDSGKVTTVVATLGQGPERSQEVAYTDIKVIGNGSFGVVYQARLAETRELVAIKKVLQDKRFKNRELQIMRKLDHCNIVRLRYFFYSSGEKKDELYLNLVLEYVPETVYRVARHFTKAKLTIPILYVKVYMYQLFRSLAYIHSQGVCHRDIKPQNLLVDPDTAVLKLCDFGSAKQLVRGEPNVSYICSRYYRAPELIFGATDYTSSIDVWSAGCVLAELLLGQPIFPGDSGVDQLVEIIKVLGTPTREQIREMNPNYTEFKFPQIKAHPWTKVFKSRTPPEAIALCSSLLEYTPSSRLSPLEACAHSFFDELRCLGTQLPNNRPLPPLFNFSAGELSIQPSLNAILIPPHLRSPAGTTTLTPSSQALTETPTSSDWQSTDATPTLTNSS
Chain of LIMK2(h) (P53671 whole entry): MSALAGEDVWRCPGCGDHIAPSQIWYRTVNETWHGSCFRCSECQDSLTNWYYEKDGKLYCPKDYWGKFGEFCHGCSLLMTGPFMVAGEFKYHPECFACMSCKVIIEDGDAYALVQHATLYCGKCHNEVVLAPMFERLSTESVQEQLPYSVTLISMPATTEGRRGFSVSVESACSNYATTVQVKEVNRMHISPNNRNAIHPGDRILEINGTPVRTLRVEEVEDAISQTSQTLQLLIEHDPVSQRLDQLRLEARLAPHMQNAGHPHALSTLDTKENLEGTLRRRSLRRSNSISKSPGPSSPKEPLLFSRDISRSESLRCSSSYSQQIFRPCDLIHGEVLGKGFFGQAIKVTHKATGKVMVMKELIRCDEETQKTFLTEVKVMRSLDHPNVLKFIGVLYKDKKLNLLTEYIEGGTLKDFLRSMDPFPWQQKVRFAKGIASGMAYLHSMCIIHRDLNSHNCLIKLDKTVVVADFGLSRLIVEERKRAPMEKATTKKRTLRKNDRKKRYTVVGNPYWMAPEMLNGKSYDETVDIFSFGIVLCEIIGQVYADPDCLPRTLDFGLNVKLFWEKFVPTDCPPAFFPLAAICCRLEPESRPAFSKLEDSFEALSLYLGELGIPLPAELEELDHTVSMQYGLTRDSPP
T3 sequence (O35904 whole entry): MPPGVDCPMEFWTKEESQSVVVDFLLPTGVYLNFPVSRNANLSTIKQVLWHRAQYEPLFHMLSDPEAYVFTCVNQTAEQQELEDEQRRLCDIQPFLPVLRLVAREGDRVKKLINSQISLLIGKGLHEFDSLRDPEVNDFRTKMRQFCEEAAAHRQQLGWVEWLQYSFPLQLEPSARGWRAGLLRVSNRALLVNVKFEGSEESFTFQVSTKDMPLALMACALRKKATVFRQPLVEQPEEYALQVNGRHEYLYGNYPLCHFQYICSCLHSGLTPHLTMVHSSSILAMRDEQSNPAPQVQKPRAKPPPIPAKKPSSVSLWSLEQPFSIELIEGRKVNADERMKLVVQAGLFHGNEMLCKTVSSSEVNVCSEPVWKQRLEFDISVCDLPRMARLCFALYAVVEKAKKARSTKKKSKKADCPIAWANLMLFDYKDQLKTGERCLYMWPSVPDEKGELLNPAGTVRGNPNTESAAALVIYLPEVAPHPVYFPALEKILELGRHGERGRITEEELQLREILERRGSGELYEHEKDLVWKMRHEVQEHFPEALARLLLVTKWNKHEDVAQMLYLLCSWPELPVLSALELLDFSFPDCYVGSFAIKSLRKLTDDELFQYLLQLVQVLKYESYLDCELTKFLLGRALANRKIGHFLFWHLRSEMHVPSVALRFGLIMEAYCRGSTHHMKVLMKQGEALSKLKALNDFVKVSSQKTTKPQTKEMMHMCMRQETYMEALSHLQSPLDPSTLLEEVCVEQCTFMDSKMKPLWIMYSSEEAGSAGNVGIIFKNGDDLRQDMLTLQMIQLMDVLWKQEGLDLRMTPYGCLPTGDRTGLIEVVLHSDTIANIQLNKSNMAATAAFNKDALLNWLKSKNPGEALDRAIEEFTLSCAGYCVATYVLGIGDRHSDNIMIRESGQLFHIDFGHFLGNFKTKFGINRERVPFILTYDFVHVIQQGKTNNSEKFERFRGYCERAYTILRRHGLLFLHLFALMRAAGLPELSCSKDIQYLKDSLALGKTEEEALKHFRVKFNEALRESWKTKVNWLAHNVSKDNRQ
T3 sequence (P26450 whole entry partner): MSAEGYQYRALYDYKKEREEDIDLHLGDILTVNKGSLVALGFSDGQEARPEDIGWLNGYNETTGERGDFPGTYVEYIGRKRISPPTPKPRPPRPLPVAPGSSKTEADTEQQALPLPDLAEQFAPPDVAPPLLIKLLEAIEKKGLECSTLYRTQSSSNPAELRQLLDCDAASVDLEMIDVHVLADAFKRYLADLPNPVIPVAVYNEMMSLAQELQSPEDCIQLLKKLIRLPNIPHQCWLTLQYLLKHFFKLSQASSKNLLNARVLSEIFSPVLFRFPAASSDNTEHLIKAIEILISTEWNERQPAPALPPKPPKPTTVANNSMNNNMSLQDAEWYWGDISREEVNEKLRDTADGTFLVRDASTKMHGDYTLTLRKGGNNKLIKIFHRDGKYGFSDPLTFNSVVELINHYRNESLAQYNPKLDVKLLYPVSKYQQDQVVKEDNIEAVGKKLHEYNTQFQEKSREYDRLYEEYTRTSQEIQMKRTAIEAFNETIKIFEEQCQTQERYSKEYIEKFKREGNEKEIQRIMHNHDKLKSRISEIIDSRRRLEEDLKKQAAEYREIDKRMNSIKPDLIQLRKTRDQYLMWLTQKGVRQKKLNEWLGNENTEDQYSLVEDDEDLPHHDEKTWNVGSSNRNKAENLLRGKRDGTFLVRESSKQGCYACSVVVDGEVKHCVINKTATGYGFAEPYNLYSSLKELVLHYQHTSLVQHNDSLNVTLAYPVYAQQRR
Chain of Met(h) (P08581 whole entry): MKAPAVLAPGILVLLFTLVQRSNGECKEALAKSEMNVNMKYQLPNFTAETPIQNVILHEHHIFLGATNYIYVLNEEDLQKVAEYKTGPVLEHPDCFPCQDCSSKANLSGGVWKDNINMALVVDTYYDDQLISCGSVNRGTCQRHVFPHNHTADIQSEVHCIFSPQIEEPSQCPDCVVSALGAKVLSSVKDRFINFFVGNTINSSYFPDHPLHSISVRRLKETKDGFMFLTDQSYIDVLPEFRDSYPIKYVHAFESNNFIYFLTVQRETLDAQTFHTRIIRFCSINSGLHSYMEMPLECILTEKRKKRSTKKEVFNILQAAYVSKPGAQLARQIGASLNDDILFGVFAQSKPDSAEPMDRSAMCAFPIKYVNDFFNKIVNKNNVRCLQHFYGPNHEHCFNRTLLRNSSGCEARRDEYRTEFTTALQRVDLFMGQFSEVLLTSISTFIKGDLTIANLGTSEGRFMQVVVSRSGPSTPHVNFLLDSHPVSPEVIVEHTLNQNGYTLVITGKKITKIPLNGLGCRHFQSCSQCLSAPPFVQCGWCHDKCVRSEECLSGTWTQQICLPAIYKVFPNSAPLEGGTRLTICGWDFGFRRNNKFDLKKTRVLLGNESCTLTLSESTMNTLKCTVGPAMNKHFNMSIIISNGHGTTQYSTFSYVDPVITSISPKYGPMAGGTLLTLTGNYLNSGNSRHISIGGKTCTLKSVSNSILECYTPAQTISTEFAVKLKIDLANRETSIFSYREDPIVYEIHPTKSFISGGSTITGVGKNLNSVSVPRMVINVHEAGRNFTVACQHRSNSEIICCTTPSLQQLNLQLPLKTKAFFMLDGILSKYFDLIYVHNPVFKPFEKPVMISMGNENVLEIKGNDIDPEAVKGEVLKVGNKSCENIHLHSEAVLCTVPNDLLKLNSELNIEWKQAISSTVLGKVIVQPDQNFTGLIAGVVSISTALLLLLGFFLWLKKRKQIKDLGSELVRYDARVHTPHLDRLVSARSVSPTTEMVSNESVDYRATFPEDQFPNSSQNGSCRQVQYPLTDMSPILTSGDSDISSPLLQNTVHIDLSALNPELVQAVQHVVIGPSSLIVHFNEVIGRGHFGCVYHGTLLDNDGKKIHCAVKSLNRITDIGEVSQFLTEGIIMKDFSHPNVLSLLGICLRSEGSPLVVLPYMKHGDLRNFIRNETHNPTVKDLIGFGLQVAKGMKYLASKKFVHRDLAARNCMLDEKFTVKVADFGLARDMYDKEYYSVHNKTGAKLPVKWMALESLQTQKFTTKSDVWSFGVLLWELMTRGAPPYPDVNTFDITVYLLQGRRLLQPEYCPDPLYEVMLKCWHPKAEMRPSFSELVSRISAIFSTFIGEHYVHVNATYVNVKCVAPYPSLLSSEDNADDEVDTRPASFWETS

On to `Fc1ccc(CNc2ncnc3ccc(F)cc23)cc1` [5aa, 6-Fluoro-N-(4-fluorobenzyl)-4-Quinazolinamine], for which the remaining activity at 10 µM was found to be 94% on Fms(h) (setting [2]); 93% at GSK3α(h) (setting [2]); 94% on LIMK2(h) (setting [2]); 82% at Met(h) (setting [2]); 97% in experiment [1] (setting [2]); 84% on PKCι(h) (setting [2]).
As to `Fc1ccc(CCNc2ncnc3ccc(F)cc23)cc1` [5as, 6-Fluoro-N-[2-(4-Fluorophenyl)Ethyl]-4-Quinazolinamine], the remaining activity at 10 µM on Fms(h) (setting [3]) was 72%; at GSK3α(h) (setting [3]) it was 101%; at LIMK2(h) (setting [3]) it was 87%; at Met(h) (setting [3]), 57%; in experiment [1] (setting [3]) it was 93%; on PKCι(h) (setting [3]), 114%.
In the case of `Fc1ccc2ncnc(NCCc3ccc(Cl)cc3)c2c1` [5at, N-[2-(4-Chlorophenyl)Ethyl]-6-Fluoro-4-Quinazolinamine], the remaining activity at 10 µM came out at 64% at Fms(h) (setting [4]); 102% on GSK3α(h) (setting [4]); 84% at LIMK2(h) (setting [4]); 112% on Met(h) (setting [4]); 93% in experiment [1] (setting [4]); 98% at PKCι(h) (setting [4]).
`COc1ccc2ncnc(Nc3cccc(F)c3)c2c1` [5ay, N-(3-Fluorophenyl)-6-Methoxy-4-Quinazolinamine]: the remaining activity at 10 µM on Fms(h) (setting [5]) was determined as 90%; at GSK3α(h) (setting [5]), 69%; on LIMK2(h) (setting [5]) it was 103%; at Met(h) (setting [5]), 72%; in experiment [1] (setting [5]) it was 96%; on PKCι(h) (setting [5]), 89%.
